Experimental findings from patent publication US8921122B2, “System and method for quantitative assessment of biological migration behavior” (The General Hospital Corporation, priority 2008, dated 2014) are described below.

What all share (assay type): cell-based, human
Test [1] deals with neutrophils. Put plainly: Neutrophil capture from whole blood on CAM-coated microfluidic channels. An excerpt: Three different adhesion molecules (P-selectin, E-selectin and fibronectin) were used to capture primary neutrophils from whole blood in the microfluidic channels. These substrates were chosen because of their significant role in neutrophil trafficking in vivo. To characterize the neutrophil capture efficiency, the cell capture chambers were coated with the adhesion molecules by flowing through solutions of six different concentrations of each adhesion molecule (concentrations shown in Table 1). Solutions were prepared by diluting the stock solution in sterile water or phosphate buffered saline (PBS) as advised by the vendors. These dilutions were loaded in the six cell capture chambers of the device and incubated for 1 h at room temperature. After one hour, P-selectin was aspirated and the flow chambers perfused with 2% HSA (Human Serum Albumin, Sigma-Aldrich Catalog # A5843) in Hank's buffer saline solution (HBSS, Sigma-Aldrich Catalog # H9269) to block non-specific binding sites and incubated for at least 15 minutes.
The PDMS device used to characterize cell capture consists of six distinct parallel channels each having an inlet and an outlet port (FIG. 2A). The channel dimensions of each segment of the capture device are 750×450×80 μm (L×W×H). The length of each segment was chosen such that it will conveniently fit in the field of view at 10× ocular and 10× objective magnification. 10 μL whole blood was mixed with 70 μL it heparinized HBSS solution and loaded in the cell chamber. Six 1 mL syringes (Part #309602, Becton, Dickinson and Company, Franklin Lakes, N.J.) were filled with HBSS containing 0.2% HSA. Most of the air trapped in the dead volume of the syringe was eliminated by tapping the inverted syringes. Syringes were then connected to tygon tubing approximately 10 to 12 inches long (Part # TGY-010-C, Small parts Inc.) through the needles (Part # NE-301PLC, Small parts Inc.). The syringes were placed on the syringe pump rack (PHD 2000, Harvard Apparatus, Holliston, Mass.), and the loose ends of the tubing were connected to the inlets of the device properly secured on the microscope stage. Smaller fragments of tubing were connected to the outlet ports. The pump was turned on at the rate of 4-5 μL/min, and the outlet tubings were clamped once the channels were filled with fluid, while leaving the pump running. This priming step was necessary to eliminate any trapped air pockets by continuing the inflow that pressurizes the air bubbles to diffuse through the porous PDMS matrix. Blood sample could be loaded as soon as all the air pockets were eliminated.
A 1.25 mm lancet (Part #366579, Becton Dickinson) was used to prick a finger of a subject, and 10 μL whole blood was drawn with a pipette. […]

The subject of test [2] is neutrophils. The test is described as follows: Neutrophil capture on CAM-coated channels primed with 20 nM fMLP. The conditions noted are these: CAM coated channel primed with 20 nM fMLP. On the procedure:
To identify whether the chemoattractant exposure has any significant effect on neutrophil capture from whole blood, the CAM coated channel was primed with 20 nM fMLP, and the cells were captured in a similar manner as described above. The effects of chemotactic priming of channels appeared significant from the statistical analysis (P<<0.05).

Test [3] deals with neutrophils. Put plainly: Neutrophil migration assay in chemoattractant gradients (switching gradient device). The conditions noted are these: for average displacement in the direction of the gradient: 20 nM/450 μm fMLP or 10 nM/450 μm IL-8 gradient; for directional bias of migration profile (comparison): comparison between substrates / between chemoattractants; for Random motility coefficient (μ): initial 10 minutes of migration. The method, then: The gradient generating device used to study cell migration consists of two inlets, one outlet, and a cell loading port. In a similar manner as explained above, the device was primed after functionalizing the channel surface with adhesion molecules. Two syringes were prepared, one with only buffer containing 0.2% HSA while the other also containing the appropriate concentration of chemokine. Two chemoattractants, either recombinant human interleukin-8 (IL8, Catalog #208-IL, R&D Systems inc.) or N-formyl-methionyl-leucyl-phenylalanine (fMLP, Part # F3506, Sigma-Aldrich) were employed at 10 nM and 20 nM concentrations. For consistency, the two syringes were connected to the device such that chemokine gradient in the cell capture and migration chambers was always in the same orientation, from top (100%) to bottom (0%). After the device was primed, inlet ports were clamped, and the blood sample was loaded through the cell loading port as described in the following section.
A 1.25 mm lancet (Part #366579, Becton Dickinson) was used to prick a finger of a subject, and 10 μL whole blood was drawn with a pipette. Before withdrawing the blood, 70 μL of HBSS mixed with sodium heparin (Part #367871, Becton Dickinson) was injected into the open end of a loading needle using a pipette. The blood in the pipette was then directly mixed with the heparin solution inside the needle. A slight pressure was gradually applied to the open end of the needle using an index finger to push the blood sample through the tubing until a small drop of fluid appeared on the other end of the tubing. To avoid entrapment of air bubbles while connecting the tubing to the PDMS device, a drop of HBSS was always present in excess at the connecting ports of the device. The loose end of the sample tubing was held with forceps and carefully inserted in the PDMS port. Once a sealed connection was established, pressure was again applied to the loading needle to push samples through the cell capture and migration chamber. The inlet and outlet tubings were then clamped using binder clips for 5-10 minutes allowing cells to interact and bind with the glycoprotein molecules.
For the neutrophil capture characterization experiments, images for 7-10 sections (each 750 μm long, FIG. 2B) were acquired at 2 s interval using time lapse microscopy and at least 10 frames were captured. This was done to make sure that only adherent neutrophils were counted. An inverted Olympus microscope (Model # CKX41) and a CMOS color camera (Pixelink PLA742) were used to capture time lapse images in phase contrast mode. A 10× ocular and 10× objective magnification were used. The neutrophils captured in the chambers were counted manually in 7-10 distinct areas for each concentration. The average number of captured cells was calculated from three repeated experiments for each concentration and CAM. Captured time lapse images were converted to 8 bit and individual cells were tracked using Metamorph imaging software (Ver 4.1, Universal Imaging Corporation). Elapsed time and migration distance from the origin in the Y direction were derived for each cell and average displacements were calculated for the entire cell population in consideration. Migration curves representing the average distance traveled in the direction of increasing chemokine concentration against time were plotted and compared. It is notable that the slope of gradient along the flow path in the cell chamber gradually changes depending on the flow rates and the diffusivities of chemoattractants. Therefore, to maintain consistency, only the first upstream quarter of the cell chamber was considered for microscopic observation where the variations in gradient profile are minimal. […]

Test [4] concerns neutrophils. Put plainly: Further migration analysis on P-selectin functionalized migration chamber with IL-8 gradient. The method, then:
The surface of the migration chamber of a device as described herein was functionalized with P-selectin by exposure to a 10 nM solution of P-selectin for 10 minutes, followed by Hanks buffer wash for 5 minutes. Capillary blood was collected from the tip of a finger using a lancet. A volume of 10 μL (equivalent of a small droplet) was collected in 10 μL heparin 2×, mixed well by repeated pipetting, and introduced into the device. After filling the main channel, a slow flow rate of the blood was established by raising the inlet tube at 4-5 cm above the level of the device.
After 5 minutes, the blood inlet was clamped, and buffer was introduced from one of the gradient generators that had Hanks buffer solution at both inlets. After 1 minute of washing all the red blood cells through the device, only leukocytes were left on the P selectin coated surface of the migration chamber. Based on observed morphological characteristics, most of the remaining captured cells appeared to be neutrophils. After 5-10 minutes of washing using a buffer, a gradient of IL-8 (from 0 to 12 nM over 400 μm distance) was rapidly established using the second gradient chamber. […]
The displacement of neutrophils in the direction of the gradient was also measured as a function of time.

Setting [5] is: 50 μg/mL E-selectin surface, first 30 minutes.
Where [6] appears, read: 200 μg/mL fibronectin surface, 30 minutes.
The mark [7] stands for this setting: substrate E-selectin, mean of about 15 cells.
Setting [8] is: substrate Fibronectin, less than 10 cells.
Where [9] appears, read: substrate P-selectin, mean of about 15 cells.

Regarding fibronectin, the cells captured with neutrophils [1] (coated surfaces at 200 μg/mL concentration of priming solution, whole blood) is given as 3-4 cells/mm^2. Moreover, the “cells captured on primed vs. unprimed surface” value in the test on neutrophils [2] is “five times more cells”.

For the molecule `CSCC[C@H](NC=O)C(=O)N[C@@H](CC(C)C)C(=O)N[C@@H](Cc1ccccc1)C(=O)O` [fMLP, N-formyl-methionyl-leucyl-phenylalanine, reference compound], the “average displacement in the direction of the gradient” value with neutrophils [3] (setting [5]) is listed as 50 μm; in the test with neutrophils [3] (setting [6]) it was “about 65 μm”. Besides, in the test with neutrophils [3], the “directional bias of migration profile (comparison)” value is “greater directional bias than IL8”. Further, the “Random motility coefficient (μ)” value in the test with neutrophils [3] (setting [7]) came to 23.64 μm^2/minute; with neutrophils [3] (setting [8]) it was 17.7 μm^2/minute; in the test on neutrophils [3] (setting [9]) it was 8.07 μm^2/minute.

As to “IL-8: recombinant human interleukin-8, chemoattractant (Catalog #208-IL, R&D Systems)”, the “average displacement in the direction of the gradient” value in the test on neutrophils [3] (setting [5]) worked out at 70 μm; in the test with neutrophils [3] (setting [6]), 35 μm. The “Random motility coefficient (μ)” value came to 33.92 μm^2/minute with neutrophils [3] (setting [7]), 27.01 μm^2/minute in the test on neutrophils [3] (setting [8]) and 14.89 μm^2/minute in the test with neutrophils [3] (setting [9]). The “neutrophil migration response to gradient” value in the test on neutrophils [4] (IL-8 gradient from 0 to 12 nM over 400 μm, P-selectin coated surface) is given as “sustained migration in the direction of the gradient”.

B1: P-selectin: Human recombinant P-selectin, cell adhesion molecule used to coat capture surface (R&D Systems ADP3-050) (protein, UniProt P16109 42-830, looked up)
P-selectin: WTYHYSTKAYSWNISRKYCQNRYTDLVAIQNKNEIDYLNKVLPYYSSYYWIGIRKNNKTWTWVGTKKALTNEAENWADNEPNNKRNNEDCVEIYIKSPSAPGKWNDEHCLKKKHALCYTASCQDMSCSKQGECLETIGNYTCSCYPGFYGPECEYVRECGELELPQHVLMNCSHPLGNFSFNSQCSFHCTDGYQVNGPSKLECLASGIWTNKPPQCLAAQCPPLKIPERGNMTCLHSAKAFQHQSSCSFSCEEGFALVGPEVVQCTASGVWTAPAPVCKAVQCQHLEAPSEGTMDCVHPLTAFAYGSSCKFECQPGYRVRGLDMLRCIDSGHWSAPLPTCEAISCEPLESPVHGSMDCSPSLRAFQYDTNCSFRCAEGFMLRGADIVRCDNLGQWTAPAPVCQALQCQDLPVPNEARVNCSHPFGAFRYQSVCSFTCNEGLLLVGASVLQCLATGNWNSVPPECQAIPCTPLLSPQNGTMTCVQPLGSSSYKSTCQFICDEGYSLSGPERLDCTRSGRWTDSPPMCEAIKCPELFAPEQGSLDCSDTRGEFNVGSTCHFSCDNGFKLEGPNNVECTTSGRWSATPPTCKGIASLPTPGVQCPALTTPGQGTMYCRHHPGTFGFNTTCYFGCNAGFTLIGDSTLSCRPSGQWTAVTPACRAVKCSELHVNKPIAMNCSNLWGNFSYGSICSFHCLEGQLLNGSAQTACQENGHWSTTVPTCQAGPLTIQEALTYFGGAVASTIGLIMGGTLLALLRKRFRQKDDGKCPLNPHSHLGTYGVFTNAAFDPSP
As to B1, in the test with neutrophils [1] (before chemokine introduced, P-selectin functionalized surface (FIGS. 7A-7C)), the “neutrophil activation by binding to capture surface (morphology)” value is “did not induce neutrophil activation”. The maximum capture efficiency result in the test with neutrophils [1] (surface coated with 25 μg/mL solution, whole blood) was “approximately 35 cells/mm^2”. For the same molecule, the “cells captured on primed vs. unprimed surface” value in the test on neutrophils [2] was “not significant”. In the test on neutrophils [3], the “directional bias of migration profile (comparison)” value was “more directionally biased and persistent”. Besides, in the test with neutrophils [4] (in the absence of IL-8), the “chemokinesis of neutrophils on functionalized substrate” value is on record as “No significant chemokinesis”.

B2: E-selectin: Human recombinant E-selectin, cell adhesion molecule used to coat capture surface (R&D Systems ADP1-050) (protein, UniProt P16581 22-610, looked up)
E-selectin: WSYNTSTEAMTYDEASAYCQQRYTHLVAIQNKEEIEYLNSILSYSPSYYWIGIRKVNNVWVWVGTQKPLTEEAKNWAPGEPNNRQKDEDCVEIYIKREKDVGMWNDERCSKKKLALCYTAACTNTSCSGHGECVETINNYTCKCDPGFSGLKCEQIVNCTALESPEHGSLVCSHPLGNFSYNSSCSISCDRGYLPSSMETMQCMSSGEWSAPIPACNVVECDAVTNPANGFVECFQNPGSFPWNTTCTFDCEEGFELMGAQSLQCTSSGNWDNEKPTCKAVTCRAVRQPQNGSVRCSHSPAGEFTFKSSCNFTCEEGFMLQGPAQVECTTQGQWTQQIPVCEAFQCTALSNPERGYMNCLPSASGSFRYGSSCEFSCEQGFVLKGSKRLQCGPTGEWDNEKPTCEAVRCDAVHQPPKGLVRCAHSPIGEFTYKSSCAFSCEEGFELHGSTQLECTSQGQWTEEVPSCQVVKCSSLAVPGKINMSCSGEPVFGTVCKFACPEGWTLNGSAARTCGATGHWSGLLPTCEAPTESNIPLVAGLSAAGLSLLTLAPFLLWLRKCLRKAKKFVPASSCQSLESDGSYQKPSYIL
Molecule B2 yielded a maximum capture efficiency in the test with neutrophils [1] (surface coated with 50 μg/mL solution, whole blood) of roughly 15 cells/mm^2. In addition, the “cells captured on primed vs. unprimed surface” value in the test with neutrophils [2] is listed as “approximately twice as many cells”.
